Several values for one entry are separate records, joined by “and”; a condition that tells them apart may be missing. Equal entries are not always repeated.
Legend:
wounds = conditions: literature conclusions (Parekh 1999, Lambrects 2005, Hamblin 2003, Belmont 1999); cited from earlier work
[1] = test system: rat skin flap reconstruction; conditions: Kubler et al 1996; cited from earlier work
chronic leg ulcers = assay: Phase IIa randomised, placebo controlled trial, PDT in chronic leg ulcers; format: in vivo, patients; conditions: 500 μM cream, 50 J/cm^2
Protocol: 16 patients with chronic leg ulcers were recruited for the study. All patients had ulcers that had been present for at least 3 months prior to treatment. After randomisation, 8 patients were treated with 3,7-bis(N,N-dibutylamino)phenothiazin-5-ium bromide PDT and 8 patients were treated with placebo. Ulcer area was measured before treatment and at 1 week, 1 month, 2 months and 3 months post treatment using a Visitrak system. Photographs were taken of the ulcers before treatment and at 24 h, 1 week, 1, 2 and 3 months post treatment.
Placebo cream was Unguentum Merck: water (1:2). 3,7-bis(N,N-dibutylamino)phenothiazin-5-ium bromide cream was 500 μM 3,7-bis(N,N-dibutylamino)phenothiazin-5-ium bromide in Unguentum Merck:water (1:2). For the treatment a 1 mm depth of cream was spread over the surface of the ulcer. The ulcer was then left, occluded under film, shielded from light for 15 minutes. At the end of the 15 minute incubation, excess cream was removed and the ulcer was illuminated using a CureLight 01 (obtainable from Photocure) at a light dose of 50 J/cm^2.

[2] = test system: chronic non healing leg ulcers or diabetic foot ulcers; assay: Clinical study, PDT on wound healing of chronic ulcers; format: in vivo, patients; conditions: 500 μM cream topical
Excerpt: After ethical review board approval and written informed participant consents were obtained, patients were recruited, provided they satisfied the ethically approved inclusion criteria. MHRA approval had been obtained.
Patients were recruited who had chronic non healing leg ulcers or diabetic foot ulcers. These patients had shown little or no wound healing for a number of weeks prior to treatment.
For the treatment 3,7-bis(N,N-dibutylamino)phenothiazin-5-ium bromide, formulated in ethanol and Unguentum M as described in Example 2 above at 500 μM, was applied topically to the ulcer surface and surrounding ulcer margin (5 mm) giving a cream depth of up to 5 mm. The ulcer was then left, not occluded, but in minimal lighting, for 15 minutes. After this pre-incubation time, the cream was rubbed into the ulcer so underlying skin/tissue could be seen through the cream. If this was not possible excess cream was removed. The ulcer was then illuminated using a broad band CureLight lamp (obtainable from PhotoCure) at a fluence rate of 20-50 mW/cm^2 giving a total light dose of 50 J/cm^2.
The ulcer area was measured pre treatment and after 1 week and one month.

[3] = test system: full thickness wound in flank skin of diabetic (db/db) mice; assay: Wound healing in spontaneous diabetic (db/db) mice, PDT; format: in vivo, mice (c57BLKs/Bom db/db)
Excerpt: When wounds are created on (db/db) diabetic mice the wounds heal more slowly compared to the non diabetic mice. This delayed healing may be caused by a lack of vasculature to feed the wound. The delayed healing model is representative of a chronic wound, and wound healing effects of drugs can be more closely monitored and more easily measured.
18 animals were included in this study. 6 control non diabetic mice (db/+), 6 control diabetic (db/db) mice and 6 (db/db) PDT treated diabetic mice.
The 3,7-bis(N,N-dibutylamino)phenothiazin-5-ium bromide was formulated in ethanol and Unguentum M as described in Example 2 below at a concentration of 0.266 mg/mL.
On day 0, the animals were anaesthetised and a single standardised full thickness wound (7.5 mm×7.5 mm) was created in the flank skin of each experimental animal. Wounds were then dressed with a 1.5×1.5 cm pad of encapsulated gauze moistened with a fixed volume of sterile saline solution. […]
Image Pro image analysis software (version 4.1.0.0, obtained from Media Cybernetics, USA) was used to calculate wound closure from wound images in each of the experimental groups over time. For each wound at each time point—open wound area was measured and expressed in terms of % wound area relative to day 4 (treatment day).

[4] = test system: full-thickness excisional wounds in flank skin of Wistar rats; assay: Closure of full thickness excisional wounds in Wistar rat, PDT; format: in vivo
Protocol: 3,7-bis(N,N-dibutylamino)phenothiazin-5-ium bromide was solubilised in ethanol to give a concentration of 10 mg/ml. This was diluted in Unguentum M: 80% water, to give creams with final concentrations of 100 μM or 500 μM of 3,7-bis(N,N-dibutylamino)phenothiazin-5-ium bromide.
The above creams were used on the closure of full thickness excisional wounds in Wistar rats with exposure to light. The effect of topical application of 50 mg of 3,7-bis(N,N-dibutylamino)phenothiazin-5-ium bromide (at concentrations of 100 μM and 500 μM) followed by photo-activation with 688 nm laser light was investigated and compared to that of application of the drug delivery vehicle (Unguentum M) followed by 688 nm photo-activation. The light dose used was 50 J/cm^2. Wound repair was measured in terms of the closure of standardised full-thickness excisional wounds created in the flank skin of adult Wistar rats.

[5] = test system: full thickness wound in flank skin of Wistar rat; assay: Wound healing in the Wistar rat, no light; format: in vivo; conditions: for % Wound area remaining, no light, 2 days post treatment / % Wound area remaining, no light, 4 days post treatment / % Wound area remaining, no light, 6 days post treatment: 100 mg topical, not illuminated
Protocol: On day 0, animals were anaesthetised and a single standardised full thickness wound (7.5 mm×7.5 mm) was created in the flank skin of each experimental animal. Wounds were dressed with a 1.5×1.5 cm pad of encapsulated gauze moistened with a fixed volume of sterile saline.
Wounds were allowed to heal without intervention for a period of 4 days, other than the replacement of saline moistened gauze and film dressings, as required.
On day 4 standard secondary dressings were removed. 100 mg of 100 μM or 500 μM 3,7-bis(N,N-dibutylamino)phenothiazin-5-ium bromide cream was applied to the wound. The wounds were not illuminated. The area of the wounds were measured prior to treatment (day 4) and on day 6, 8 and 10.

intimal hyperplasia = conditions: local photodynamic action; Heckenkamp et al 2000; cited from earlier work
[6] = individual patients 1-5, 50 J/cm^2 broad band light

Poly-lysine-chlorin e6
effect of PDT on wound healing (wounds): did not accelerate wound healing

Photofrin
effect on wound healing [1]: delayed wound healing | effect of PDT on wound healing (wounds): delay wound healing

CCCCN(CCCC)c1ccc2nc3ccc(N(CCCC)CCCC)cc3[s+]c2c1.[Br-] [3,7-bis(N,N-dibutylamino)phenothiazin-5-ium bromide]
healing as measured by the size of the wound, compared to placebo (chronic leg ulcers): Better healing | patients showing complete wound healing at 2 months (chronic leg ulcers; 2 out of 8 patients, placebo: none): 25% | patients showing complete wound healing at 3 months (chronic leg ulcers; 4 out of 8 patients, placebo: 1 out of 8 (12.5%)): 50% | area of the treated ulcers following the photodynamic treatment ([2]; 50 J/cm^2): reduction in the area of the treated ulcers | Percentage reduction in ulcer area at 1 month compared to pre treatment [2, 6]: 13% and 8% and 10% and 50% and 34% | Percentage reduction in ulcer area at 1 week compared to pre treatment [2, 6]: 8% and 14% and 0% and 23% | % wound area (open wound area relative to day 4, treatment day) ([3]; diabetic db/db mice, 500 μM in Unguentum M topical + 25 J/cm^2 688 nm light, 3 days post treatment, 6 animals): 46% | rate of wound healing ([3]; in combination with light, treated diabetic mice vs control diabetic mice): substantial increase in the rate of wound healing | wound closure, light treatment vs compound alone ([4]; 100 μM cream, 50 mg topical, 688 nm laser light 50 J/cm^2): closed more rapidly | wound closure, higher dose vs lower dose ([4]; 500 μM cream vs 100 μM cream): closed more rapidly | adverse tissue responses, gross examination of wound and wound margin tissue ([4]; any treatment regime of the study): no adverse tissue responses were noted | % Wound area remaining, no light, 2 days post treatment ([5]; 100 μM cream): 62% | % Wound area remaining, no light, 4 days post treatment ([5]; 100 μM cream): 33% | % Wound area remaining, no light, 6 days post treatment ([5]; 100 μM cream): 25% | % Wound area remaining, no light, 2 days post treatment ([5]; 500 μM cream): 62% | % Wound area remaining, no light, 4 days post treatment ([5]; 500 μM cream): 30% | % Wound area remaining, no light, 6 days post treatment ([5]; 500 μM cream): 19% | wound healing, 500 μM vs 100 μM ([5]; no light): heal faster at a 500 μM concentration than at 100 μM

CN(C)c1ccc2nc3ccc(=[N+](C)C)cc-3sc2c1 [methylene blue]
effect on intimal hyperplasia (intimal hyperplasia): retarding effect on intimal hyperplasia

— patent publication US7407953B2, “Wound healing” (Photopharmica Limited, priority 2007, dated 2008)
